From patent US8586125B2, “Thermal treatment of an implantable medical device” (Advanced Cardiovascular Systems, Inc., priority 1999, dated 2013)
pIC50: −log10 of the molar value. Several values for one entry are separate records, joined by “and”; a condition that tells them apart may be missing. Equal entries are not always repeated. Where two headings read alike, the source gives them in different places. Values belong to the molecule of their own block, whether it stands above or below them. Starred links: 1 amine or outer side, 2 acyl side, 3 side chain; linkers in the order of their positions; H or OH if unused. Positions of bridges follow the written chain, without caps; N, C: chain ends. Non-standard residues stand in square brackets, D forms with d. Residues, ends and D or L forms follow the SMILES beside them. Chains are numbered I, II in the order given. Actinocin(9to1) = Cc1c2oc3c(C)ccc(C(=O)[*:1])c3nc-2c(C(=O)[*:2])c(N)c1=O; NMeV = CN[C@H](C(=O)O)C(C)C; Sar = CNCC(=O)O

Key:
[1] = 24 hour elution of vinblastine from EVOH coated stents in phosphated saline solution, HPLC; format: physicochemical; settings: for Total microgram Released / microgram Release per Hour / microgram Released: Unsterilized stent
Protocol: Multi-Link™ stents were cleaned by placement in an ultrasonic bath of isopropyl alcohol solution for 10 minutes. The stents were dried and plasma cleaned in a plasma chamber. An EVOH solution was made with 1 gram of EVOH and 7 grams of DMSO, making an EVOH:DMSO ratio of 1:7. Vinblastine was added to the 1:7 EVOH:DMSO solution. Vinblastine constituted 2.5% by weight of the total weight of the solution. The solution was vortexed and placed in a tube. The cleaned Multi-Link™ stents were attached to mandrel wires and dipped into the solution. The coated stents were passed over a hot plate, for about 3-5 seconds, with a temperature setting of about 60° C. The coated stents were cured for 6 hours in an air box then placed in a vacuum oven at 60° C. for 24 hours. The above process was repeated twice, having a total of three layers. The average weight of the coating was 0.00005 gram, with an estimated vinblastine concentration of 12 microgram per stent. Some of the stents were sterilized by electron beam radiation. The sterilized and unsterilized vinblastine coated stents were tested for a 24 hour elution period by placing one sterilized and one unsterilized stent in 5 ml of phosphated saline solution (pH 7.4) at room temperature with rotational motion. The amount of vinblastine eluted was evaluated by High Performance Liquid Chromatography (HPLC) analysis. The results of this test are given below and plotted in FIG. 7.

[2] = system: Medial smooth muscle cells (SMC); assay: Inhibition of SMC proliferation, thymidine incorporation; format: cell-based; settings: Rattus norvegicus, read-out: IC50 (concentration at which 50% of the cells stop proliferating)
Protocol: Medial smooth muscle cells (SMC) were isolated from rat aorta and cultured according to explant methods known to one of ordinary skill in the art. Cells were harvested via trypsinization and subcultivated. Cells were identified as vascular SMC through their characteristic hill-and-valley growth pattern as well as indirect immunofluorescence with monoclonal anti SMC α-actin. Studies were performed with cells at passage 3-4. SMC monolayers were established on 24 well culture dishes, scrape wounded and treated with actinomycin D, mytomycin and docetaxel. The cells were exposed to the drug solution of different concentrations for 2 hours and then washed with buffered saline solution. The proliferation of the cells was quantified by standard technique of thymidine incorporation.
The IC50 (concentration at which 50% of the cells stop proliferating) of actimomycin D was 10^−9M as compared to 5×10^−5M for mitomycin and 10^−6M for docetaxel.

[3] = system: Porcine Coronary Artery Model; assay: Reduction in restenosis in the porcine coronary artery model, drug delivered with microporous balloon catheter; format: in vivo, Domestic swine; settings: for Percent Diameter Stenosis (QCA): 28-day endpoint; for Percent Stenosis (IEL area-lumen area)/IEL area / Residual Lumen (Lumen area)/IEL area: histomorphometric
Protocol: Porcine coronary models were used to assess the degree of the inhibition of neointimal formation in the coronary arteries of a porcine stent injury model by actinomycin D, delivered with a microporous balloon catheter (1×10^6 pores/mm^2 with sizes ranging from 0.2-0.8 micron).
The preclinical animal testing was performed in accordance with the NIH Guide for Care and Use of Laboratory Animals. Domestic swine were utilized to evaluate effect of the drug on the inhibition of the neointimal formation. Each testing procedure, excluding the angiographic analysis at the follow-up endpoints, was conducted using sterile techniques. During the study procedure, the activated clotting time (ACT) was monitored regularly to ensure appropriate anticoagulation. Base line blood samples were collected for each animal before initiation of the procedure. Quantitative coronary angiographic analysis (QCA) and intravascular ultrasound (IVUS) analysis was used for vessel size assessment.
The vessels at the sites of the delivery were denuded by inflation of the PTCA balloons to 1:1 balloon to artery ratio and moving the balloons back and forth 5 times. The drug was delivered to the denuded sites at 3.5 atm (3.61 Kg/sq cm) for 2 minutes using the microporous balloon catheters before stent deployment. The average volume of delivery was about 3.3+/−1.2 ml. Following drug delivery, stents were deployed at the delivery site such that final stent to artery ratio was 1.1:1.
QCA and IVUS analyses were used for stent deployment guidance. Pre-stenting IVUS measurements of the lumen size at the targeted vessel sites were performed for determination of the balloon (size) inflation pressure. Quantitative analysis of the stented coronary arteries to compare pre-stenting, post-stenting, follow-up minimal luminal diameters, stent recoil, and balloon/stent to artery ratio were performed. Following stent implantation and final angiogram, all devices were withdrawn and the wounds closed; the animals were allowed to recover from anesthesia as managed by the attending veterinarian or animal care professionals at the research center.
Upon return to the research laboratory at the 28-day endpoint, angiographic assessments were performed. Coronary artery blood flow was assessed and the stented vessels were evaluated to determine minimal lumen diameter. The animals were euthanized following this procedure at the endpoint. Following euthanasia, the hearts were pressure perfusion fixed with formalin and prepared for histological analysis, encompassing light microscopy, and morphometry. Morphometric analysis of the stented arteries included assessment of the position of the stent struts and determination of vessel/lumen areas, percent (%) stenosis, injury scores, intimal and medial areas and intima/media ratios. Percent stenosis is quantitated by the following equation: 100(IEL area−lumen area)/IEL area
where IEL is the internal elastic lamia.
The control group of animals received delivery of water instead of the drug. The test group of animals received actinomycin D in two different concentration of 10^−5M and 10^−4M. […] FIGS. 9A and 9B illustrate sample pictures of the histology slides of the coronary vessels from the control and the Dose 1 group, respectively.

[4] = system: porcine coronary arteries; assay: Positive remodeling: actinomycin D/EVOH coated stents in porcine coronary arteries, 28 days; format: in vivo
Description: In vivo data is provided illustrated positive remodeling caused by the application of actinomycin D. Stents coated with EVOH impregnated with actinomycin D and a control group of stents coated with EVOH free from actinomycin D were implanted in porcine coronary arteries. The animals were sacrificed at the end of 28 days. […] The index of remodeling was 1.076 (8.54/7.94).
FIGS. 10A and 10B illustrate sample pictures of the histology slides of the coronary vessels from the control group 64 RCA (Right Coronary […]) and the actinomycin D loaded stent group 68 LAD (Left Anterior Descending), respectively. The stent used was an Advanced Cardiovascular Systems Multi-Link Duet™ (stainless steel). As is illustrated by FIG. 10B, the positive remodeling of EEL 80, caused by the application of actinomycin D, creates a gap between stent struts 82 and EEL 80. Thrombus deposits, illustrated by reference number 84, are formed in the gap over time. The use of a self-expandable stent eliminates the formation of the gap as the stent self-expands in response to the positive remodeling of IEL. Thrombus deposits can be, accordingly, eliminated.
Actinomycin D induces the positive remodeling of the vessel walls, more particularly positive remodeling of the external elastic lamina (EEL) of a blood vessel wall. Positive remodeling is generally defined as the ability of the vessel walls to structurally adapt, by increasing in lumen size, to chronic stimuli. A positively remodeled lumen wall has a greater diameter or size as compared to a lumen wall which has not been subjected to the remodeling effect. Accordingly, the flow of blood through the remodeled site is increased—flow which would have otherwise been reduced because of, for example, the presence of plaque build-up or migration and proliferation of cells. The index of remodeling is defined by the ratio of the area circumscribed by the EEL of the lesion site to the area circumscribed by the EEL of a reference site. As a result of the positive remodeling of the EEL, the internal elastic lamina (IEL), in response, can also increases in area or diameter. Actinomycin D, or analogs or derivative thereof, not only can inhibit abnormal or inappropriate migration and/or proliferation of smooth muscle cells, which can lead to restenosis, but can also induce positive remodeling of the blood vessel walls. Thus the widening of the diseased region becomes more pronounced.

[5] = Sterilized stent, Time 0.5 Hours
[6] = Sterilized stent, Time 24 Hours
[7] = average of vessel sections, 28 days
[8] = individual vessel sections (ID # animal, artery, d/m/p), 28 days
[9] = 2 hours drug exposure, scrape wounded SMC monolayers, passage 3-4

μg Release ([1]; Sterilized (electron beam) stent, Time 0 Hours): 0 µg
Total μg Released ([1]; Sterilized stent, Time 0 Hours): 0 µg
μg Release per Hour ([1]; Sterilized stent, Time 0 Hours): 0 μg per Hour
Total μg Released [1, 5]: 2.14 µg
μg Release [1, 5]: 2.14 µg
μg Release per Hour [1, 5]: 4.28 μg per Hour
Total μg Released ([1]; Sterilized stent, Time 3 Hours): 3.84 µg
μg Release ([1]; Sterilized stent, Time 3 Hours): 1.7 µg
μg Release per Hour ([1]; Sterilized stent, Time 3 Hours): 0.68 μg per Hour
Total μg Released ([1]; Sterilized stent, Time 4 Hours): 4.12 µg
μg Release ([1]; Sterilized stent, Time 4 Hours): 0.28 µg
μg Release per Hour ([1]; Sterilized stent, Time 4 Hours): 0.28 μg per Hour
Total μg Released ([1]; Sterilized stent, Time 6 Hours): 4.38 µg
μg Release ([1]; Sterilized stent, Time 6 Hours): 0.26 µg
μg Release per Hour ([1]; Sterilized stent, Time 6 Hours): 0.13 μg per Hour
Total μg Released [1, 6]: 6.43 µg
μg Release [1, 6]: 2.05 µg
μg Release per Hour [1, 6]: 0.11 μg per Hour
Total microgram Released ([1]; Time 0 Hours): 0 microgram
microgram Release per Hour ([1]; Time 0 Hours): 0 microgram per Hour
microgram Released ([1]; Time 0 Hours, pH 7.4, room temperature): 0 microgram
Total microgram Released ([1]; Time 0.5 Hours): 2.12 microgram
microgram Release per Hour ([1]; Time 0.5 Hours): 4.24 microgram per Hour
microgram Released ([1]; Time 0.5 Hours): 2.12 microgram
Total microgram Released ([1]; Time 3 Hours): 4.03 microgram
microgram Release per Hour ([1]; Time 3 Hours): 0.76 microgram per Hour
microgram Released ([1]; Time 3 Hours): 1.91 microgram
Total microgram Released ([1]; Time 4 Hours): 4.30 microgram
microgram Release per Hour ([1]; Time 4 Hours): 0.27 microgram per Hour
microgram Released ([1]; Time 4 Hours): 0.27 microgram
Total microgram Released ([1]; Time 6 Hours): 4.68 microgram
microgram Release per Hour ([1]; Time 6 Hours): 0.19 microgram per Hour
microgram Released ([1]; Time 6 Hours): 0.38 microgram
Total microgram Released ([1]; Time 24 Hours): 6.38 microgram
microgram Release per Hour ([1]; Time 24 Hours): 0.09 microgram per Hour
microgram Released ([1]; Time 24 Hours): 1.7 microgram
SMILES: CC[C@]1(O)C[C@@H]2CN(CCc3c([nH]c4ccccc34)[C@@](C(=O)OC)(c3cc4c(cc3OC)N(C)[C@H]3[C@@](O)(C(=O)OC)[C@H](OC(C)=O)[C@]5(CC)C=CCN6CC[C@]43[C@@H]65)C2)C1 [Vinblastine]

SMILES: Cc1c2oc3c(C)ccc(C(=O)N[C@@H]4C(=O)N[C@H](C(C)C)C(=O)N5CCC[C@H]5C(=O)N(C)CC(=O)N(C)[C@@H](C(C)C)C(=O)O[C@@H]4C)c3nc-2c(C(=O)N[C@@H]2C(=O)N[C@H](C(C)C)C(=O)N3CCC[C@H]3C(=O)N(C)CC(=O)N(C)[C@@H](C(C)C)C(=O)O[C@@H]2C)c(N)c1=O [actinomycin D] (I: T[dV]P[Sar][NMeV] / II: T[dV]P[Sar][NMeV]; ester I:1-I:C, II:1-II:C; linker I:N-II:N via Actinocin(9to1))
pIC50 ([2]; 2 h): 9.00
Percent Diameter Stenosis (QCA) ([3]; DOSE 1 1E−05M (n = 10)): 36.8 +/− 9.7%
Percent Diameter Stenosis (QCA) ([3]; DOSE 2 1E−04M (n = 7)): 32.3+/−11.7%
Percent Stenosis (IEL area-lumen area)/IEL area ([3]; DOSE 1 1E−05M (n = 30)): 51.8 +/− 13.8%
Residual Lumen (Lumen area)/IEL area ([3]; DOSE 1 1E−05M (n = 30)): 0.49 +/− 0.14
Percent Stenosis (IEL area-lumen area)/IEL area ([3]; DOSE 2 1E−04M (n = 21)): 54.1 +/− 11.7%
Residual Lumen (Lumen area)/IEL area ([3]; DOSE 2 1E−04M (n = 21)): 0.46 +/− 0.08
AVG % EEL growth ([4]; ActD vs EVOH): 7.486%
AVG % IEL growth ([4]; ActD vs EVOH): 13.18%
index of remodeling ([4]; EEL area drug coated / EVOH control (8.54/7.94), 28 days): 1.076
EEL Area AVG [4, 7]: 8.5425 mm^2
IEL Area AVG [4, 7]: 7.4727 mm2
EEL Area [4, 8]: 9.2545 mm^2 and 9.2515 mm^2 and 8.7854 mm^2 and 9.5164 mm^2 and 9.1504 mm^2 and 9.6679 mm^2 and 9.1237 mm^2 and 9.9849 mm^2 and 9.4765 mm^2 and 7.4424 mm^2 and 9.1462 mm^2 and 8.9504 mm^2 and 8.9117 mm^2 and 8.7533 mm^2 and 7.3249 mm^2 and 7.1061 mm^2 and 8.5830 mm^2 and 7.4498 mm^2 and 8.2509 mm^2 and 7.7342 mm^2 and 7.9207 mm^2 and 6.9926 mm^2 and 8.3883 mm^2 and 7.8546 mm^2
IEL Area [4, 8]: 8.3785 mm2 and 8.5819 mm2 and 8.0964 mm2 and 8.6879 mm2 and 8.0914 mm2 and 8.7181 mm2 and 8.0273 mm2 and 8.5222 mm2 and 8.3796 mm2 and 6.4219 mm2 and 7.7757 mm2 and 7.5392 mm2 and 7.6573 mm2 and 6.9749 mm2 and 6.2815 mm2 and 5.9760 mm2 and 7.6195 mm2 and 6.3785 mm2 and 7.5206 mm2 and 6.9992 mm2 and 6.9632 mm2 and 6.0418 mm2 and 7.4794 mm2 and 6.2324 mm2

SMILES: CC(=O)O[C@@]12CO[C@@H]1C[C@H](O)[C@@]1(C)C(=O)[C@H](O)C3=C(C)[C@@H](OC(=O)[C@H](O)[C@@H](NC(=O)OC(C)(C)C)c4ccccc4)C[C@@](O)([C@@H](OC(=O)c4ccccc4)[C@H]21)C3(C)C [docetaxel]
pIC50 [2, 9]: 6.00

SMILES: CO[C@@]12[C@H](COC(N)=O)C3=C(C(=O)C(C)=C(N)C3=O)N1C[C@@H]1N[C@@H]12 [mitomycin]
pIC50 [2, 9]: 4.30
